Experimental data as given in ChEMBL document CHEMBL1201862, “PubChem BioAssay data set” (2004).
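The compound was tested at five concentrations on cells cultured in 96-well plates, with a 48-hour exposure period. GI50 is the concentration that inhibits growth by half.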 Activity calls are given as the source filed them. No stated cut-off is given here; in the data, active = GI50 up to about 1.1 µM and inactive = higher.

Key:
Assay in all cases: DTP human tumour cell line panel, 48 h
[1] = tested on: OVCAR-4
[2] = tested on: PC-3
[3] = tested on: Malme-3M
[4] = tested on: SK-MEL-2
[5] = tested on: SW-620
[6] = tested on: NCI-H226
[7] = tested on: UACC-62
[8] = tested on: KM12
[9] = tested on: MOLT-4
[10] = tested on: SF-268
[11] = tested on: Hs-578T
[12] = tested on: UACC-257
[13] = tested on: DU-145
[14] = tested on: HT-29
[15] = tested on: NCI-H522
[16] = tested on: SF-539
[17] = tested on: ACHN
[18] = tested on: OVCAR-8
[19] = tested on: NCI/ADR-RES

| Structure (SMILES) | GI50 [1] | GI50 [2] | GI50 [3] | GI50 [4] | GI50 [5] | GI50 [6] | GI50 [7] | GI50 [8] | GI50 [9] | GI50 [10] | GI50 [11] | GI50 [12] | GI50 [13] | GI50 [14] | GI50 [15] | GI50 [16] | GI50 [17] | GI50 [18] | GI50 [19] |
| --- | --- | --- | --- | --- | --- | --- | --- | --- | --- | --- | --- | --- | --- | --- | --- | --- | --- | --- | --- |
| COc1cc(C2c3cc4c(cc3OC(NNC(N)=S)C2C)OCO4)cc(OC)c1OC (stereo not given) | 41.3 µM (inactive) | 0.302 µM (active) | 0.53 µM (active) | 25.6 µM (inactive) | 0.363 µM (active) | 0.721 µM (active) | 0.318 µM (active) | 0.343 µM (active) | 0.374 µM (active) | 3.33 µM (inactive) | 0.406 µM (active) | 1.93 µM (inactive) | 4.17 µM (inactive) | 0.269 µM (active) | 0.303 µM (active) | 0.199 µM (active) | 0.989 µM (active) | 0.411 µM (active) | 0.585 µM (active) |
| COC1(CC[C@H](C)COC2OC(CO)C(O)C(O)C2O)O[C@H]2C[C@H]3[C@@H]4CC=C5C[C@@H](OC6OC(CO)C(O)C(OC7OC(CO)C(O)C(O)C7O)C6OC6OC(C)C(O)C(O)C6O)CC[C@]5(C)[C@H]4CC[C@]3(C)[C@H]2[C@@H]1C (stereo not given in full) | 5.28 µM (inactive) | 4.3 µM (inactive) | 2.5 µM (inactive) | 8.77 µM (inactive) | 2.81 µM (inactive) | 6.49 µM (inactive) | 3.7 µM (inactive) | 1.98 µM (inactive) | 3.15 µM (inactive) | 4.89 µM (inactive) | 11 µM (inactive) | 5.73 µM (inactive) | 2 µM (inactive) | 4.57 µM (inactive) | 2.94 µM (inactive) | 2.17 µM (inactive) | 13.3 µM (inactive) | 3.03 µM (inactive) | 9.44 µM (inactive) |
| COc1cc(OC)c(-c2ccc(OCc3ccccc3)c3c(OC)cc(C)cc23)c2c1C(C)=N[C@H](C)C2 | 2.14 µM (inactive) | 2.1 µM (inactive) | 1.8 µM (inactive) | 2.25 µM (inactive) | 2.45 µM (inactive) | 2.64 µM (inactive) | 2.1 µM (inactive) | 2.09 µM (inactive) | 2.29 µM (inactive) | 1.78 µM (inactive) | 2.29 µM (inactive) | 2.17 µM (inactive) | 2.38 µM (inactive) | 1.97 µM (inactive) | 1.82 µM (inactive) | 2.38 µM (inactive) | 2.25 µM (inactive) | 1.96 µM (inactive) | 2.12 µM (inactive) |
| O=C1Nc2ccccc2/C1=C1/Nc2ccccc2/C1=N/OCCO | > 100 µM (inactive) | 15.1 µM (inactive) | 5.53 µM (inactive) | 0.457 µM (active) | 14 µM (inactive) | > 100 µM (inactive) | 10.5 µM (inactive) | 0.149 µM (active) | 0.8 µM (active) | > 100 µM (inactive) | 6.14 µM (inactive) | > 100 µM (inactive) | 0.713 µM (active) | 2.44 µM (inactive) | > 100 µM (inactive) | > 100 µM (inactive) | 0.352 µM (active) | > 100 µM (inactive) | > 100 µM (inactive) |
| COc1ccc(/C=C2\C[C@H]3[C@@H]4CCC5=C/C(=N/O)CC[C@]5(C)[C@H]4CC[C@]3(C)\C2=N\O)cc1OC | 11 µM (inactive) | 10.7 µM (inactive) | 43.5 µM (inactive) | 15.9 µM (inactive) | 34.2 µM (inactive) | 2.51 µM (inactive) | 22.2 µM (inactive) | 8.04 µM (inactive) | 5.79 µM (inactive) | 51.6 µM (inactive) | > 100 µM (inactive) | 6.07 µM (inactive) | 63.4 µM (inactive) | 7.66 µM (inactive) | 23.1 µM (inactive) | 16.3 µM (inactive) | 14.5 µM (inactive) | 11 µM (inactive) | 26.4 µM (inactive) |
| O=C(O)c1cc(/C=C/c2ccc(O)c(O)c2)ccc1O | > 100 µM (inactive) | > 100 µM (inactive) | > 100 µM (inactive) | > 100 µM (inactive) | > 10 µM (inactive) | > 100 µM (inactive) | > 100 µM (inactive) | > 100 µM (inactive) | 30.8 µM (inactive) | > 100 µM (inactive) | > 100 µM (inactive) | > 100 µM (inactive) | > 100 µM (inactive) | > 100 µM (inactive) | > 100 µM (inactive) | > 100 µM (inactive) | > 100 µM (inactive) | > 100 µM (inactive) | > 100 µM (inactive) |
| O=[N+]([O-])c1cc(-c2nnc(C34CC5CC(CC(C5)C3)C4)o2)cc([N+](=O)[O-])c1 | > 100 µM (inactive) | 45.2 µM (inactive) | 64.4 µM (inactive) | 63.4 µM (inactive) | 15.4 µM (inactive) | 83.4 µM (inactive) | 86.9 µM (inactive) | > 100 µM (inactive) | > 100 µM (inactive) | 86.1 µM (inactive) | 64.7 µM (inactive) | 83.4 µM (inactive) | 33 µM (inactive) | 6.41 µM (inactive) | > 100 µM (inactive) | > 100 µM (inactive) | 58.6 µM (inactive) | 25.5 µM (inactive) | > 100 µM (inactive) |
| Cc1cc(=O)n2nc(CCl)sc2n1 | 17.8 µM (inactive) | 13.3 µM (inactive) | 12.8 µM (inactive) | 10.5 µM (inactive) | 15.8 µM (inactive) | 13.9 µM (inactive) | 14.4 µM (inactive) | 12.1 µM (inactive) | 11.8 µM (inactive) | 15.8 µM (inactive) | 17 µM (inactive) | 10.2 µM (inactive) | 18.1 µM (inactive) | 14.8 µM (inactive) | 5.57 µM (inactive) | 18.7 µM (inactive) | 14.3 µM (inactive) | 16.7 µM (inactive) | 20.7 µM (inactive) |
| CC(C)=CCOc1cc(NC(=S)c2ccoc2C)ccc1Cl [UC 781] | > 100 µM (inactive) | > 100 µM (inactive) | > 100 µM (inactive) | > 100 µM (inactive) | > 100 µM (inactive) | 57.4 µM (inactive) | > 100 µM (inactive) | > 100 µM (inactive) | 9.38 µM (inactive) | 45.5 µM (inactive) | 48.6 µM (inactive) | > 100 µM (inactive) | > 100 µM (inactive) | > 100 µM (inactive) | > 100 µM (inactive) | > 100 µM (inactive) | > 100 µM (inactive) | 34.8 µM (inactive) | > 100 µM (inactive) |
| Cn1cnc(N)c(N=O)c1=O | > 10 µM (inactive) | > 10 µM (inactive) | > 10 µM (inactive) | > 10 µM (inactive) | > 10 µM (inactive) | > 10 µM (inactive) | > 10 µM (inactive) | > 10 µM (inactive) | > 10 µM (inactive) | > 10 µM (inactive) | > 10 µM (inactive) | > 10 µM (inactive) | > 10 µM (inactive) | > 10 µM (inactive) | > 10 µM (inactive) | > 10 µM (inactive) | > 10 µM (inactive) | > 10 µM (inactive) | > 10 µM (inactive) |
